Calls of active or inactive are those of the source. No cut-off for these calls is given here.
Legend:
[1] = target: T1, KEAP1/NRF2 (Rattus norvegicus) (UniProt O54968+P57790); experiment: Inhibition of Keap1-Nrf2 protein-protein interaction in rat H9c2 cells assessed as upregulation of HO1 expression incubated for 12 hrs by Western blot analysis; assay type: cell-based; conditions: dose microM 0.1-10, time 12.0 hrs
CYP1A2 = target: T2, CYP1A2 (Homo sapiens, UniProt P05177); experiment: Inhibition of CYP1A2 (unknown origin) at 10 uM using 7-ethoxycoumarin as substrate preincubated for 5 mins followed by NADPH addition and measured after 20 mins by LC-MS/MS analysis relative to control; assay type: ADME; conditions: probe 7-ethoxycoumarin
T2 sequence (P05177 whole entry): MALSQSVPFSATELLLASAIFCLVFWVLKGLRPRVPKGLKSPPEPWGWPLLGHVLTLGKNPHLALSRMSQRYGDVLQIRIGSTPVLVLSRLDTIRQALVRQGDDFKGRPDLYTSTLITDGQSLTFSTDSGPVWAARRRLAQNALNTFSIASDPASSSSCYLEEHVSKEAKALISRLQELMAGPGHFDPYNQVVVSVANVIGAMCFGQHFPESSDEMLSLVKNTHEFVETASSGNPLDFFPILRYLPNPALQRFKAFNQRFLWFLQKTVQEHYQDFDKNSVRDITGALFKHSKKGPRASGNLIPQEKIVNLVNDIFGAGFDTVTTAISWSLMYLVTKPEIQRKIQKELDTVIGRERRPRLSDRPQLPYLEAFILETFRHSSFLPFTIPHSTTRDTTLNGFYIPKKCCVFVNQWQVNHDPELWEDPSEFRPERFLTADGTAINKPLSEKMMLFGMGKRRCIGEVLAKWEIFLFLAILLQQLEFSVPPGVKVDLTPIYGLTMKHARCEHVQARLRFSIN

[2] = MRT (0 to infinity) in rat at 5 mg/kg, iv by LC-MS/MS analysis; assay type: ADME, organism-based; conditions: in vivo
[3] = Cmax in rat at 5 mg/kg, iv by LC-MS/MS analysis; assay type: ADME, organism-based; parameters: route intravenous, dose 5 mg/kg; conditions: in vivo
[4] = target: T1, KEAP1/NRF2 (Rattus norvegicus); experiment: Inhibition of Keap1-Nrf2 protein-protein interaction in rat H9c2 cells assessed as upregulation of GCLM mRNA expression at 10 uM incubated for 4 to 24 hrs by Trizol reagent based qRT-PCR analysis; assay type: cell-based; conditions: time hrs 4-24
Mus musculus [5] = experiment: Antioxidant activity against LPS-induced injury in C57BL/6 mouse assessed as increase in GSH/GSSG ratio at 10 mg/kg, ip qd administered for 3 days prior to LPS stimulation and measured after 12 hrs; assay type: functional, organism-based; conditions: dose mg/kg 10-40, time 3.5 day
CYP2C19 = CYP2C19 (Homo sapiens, UniProt P33261); experiment: Inhibition of CYP2C19 (unknown origin) at 10 uM using omeprazole as substrate preincubated for 5 mins followed by NADPH addition and measured after 20 mins by LC-MS/MS analysis relative to control; assay type: ADME; conditions: probe omeprazole
Chain of CYP2C19 (P33261 whole entry): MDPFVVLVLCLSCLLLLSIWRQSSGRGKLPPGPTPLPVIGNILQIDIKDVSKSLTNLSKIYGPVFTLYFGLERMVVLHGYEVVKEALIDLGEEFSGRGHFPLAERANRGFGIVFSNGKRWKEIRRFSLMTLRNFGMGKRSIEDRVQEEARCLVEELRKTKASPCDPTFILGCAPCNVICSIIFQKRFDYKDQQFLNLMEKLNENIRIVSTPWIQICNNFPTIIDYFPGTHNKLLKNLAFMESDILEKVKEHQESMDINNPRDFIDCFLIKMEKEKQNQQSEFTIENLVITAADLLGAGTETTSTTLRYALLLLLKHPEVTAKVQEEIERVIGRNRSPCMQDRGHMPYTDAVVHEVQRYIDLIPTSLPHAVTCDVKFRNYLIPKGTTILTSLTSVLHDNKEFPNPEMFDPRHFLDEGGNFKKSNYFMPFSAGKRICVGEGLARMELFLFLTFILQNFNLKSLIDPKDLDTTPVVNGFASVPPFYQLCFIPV

CYP3A4 = CYP3A4 (Homo sapiens, UniProt P08684); experiment: Inhibition of CYP3A4 (unknown origin) at 10 uM using […] as substrate preincubated for 5 mins followed by NADPH addition and measured after 20 mins by LC-MS/MS analysis relative to control; assay type: ADME
Chain of CYP3A4 (P08684 whole entry): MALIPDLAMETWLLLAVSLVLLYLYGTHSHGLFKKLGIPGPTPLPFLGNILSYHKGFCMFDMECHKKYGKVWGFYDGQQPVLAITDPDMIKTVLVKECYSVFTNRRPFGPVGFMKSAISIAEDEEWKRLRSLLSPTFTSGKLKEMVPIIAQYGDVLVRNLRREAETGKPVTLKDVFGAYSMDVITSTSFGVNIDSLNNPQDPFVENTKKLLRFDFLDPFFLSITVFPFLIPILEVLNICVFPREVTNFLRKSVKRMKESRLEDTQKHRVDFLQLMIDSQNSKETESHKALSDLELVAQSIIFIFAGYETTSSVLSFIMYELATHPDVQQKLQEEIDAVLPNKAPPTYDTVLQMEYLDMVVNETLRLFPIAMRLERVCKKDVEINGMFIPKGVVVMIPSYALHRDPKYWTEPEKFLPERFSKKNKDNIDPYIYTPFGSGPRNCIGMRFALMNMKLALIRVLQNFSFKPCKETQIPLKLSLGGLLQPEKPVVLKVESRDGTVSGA

[6] = Intrinsic clearance in human liver microsome at 1 uM preincubated for 5 mins followed by NADPH addition and measured after 45 mins by LC-MS/MS analysis; assay type: ADME; conditions: microsomes, 0.75 h
[7] = target: T1, KEAP1/NRF2 (Rattus norvegicus); experiment: Inhibition of Keap1-Nrf2 protein-protein interaction in rat H9c2 cells assessed as upregulation of GCLM mRNA expression incubated for 12 hrs by Trizol reagent based qRT-PCR analysis; assay type: cell-based; conditions: dose microM 0.1-10, time 12.0 hrs
[8] = AUC (0 to infinity) in rat at 5 mg/kg, iv by LC-MS/MS analysis; assay type: ADME, organism-based; parameters: time infinity, route intravenous, dose 5 mg/kg; conditions: in vivo
[9] = target: T1, KEAP1/NRF2 (Rattus norvegicus); experiment: Inhibition of Keap1-Nrf2 protein-protein interaction in rat H9c2 cells assessed as upregulation of NQO1 mRNA expression incubated for 12 hrs by Trizol reagent based qRT-PCR analysis; assay type: cell-based; conditions: dose microM 0.1-10, time 12.0 hrs
[10] = target: T1, KEAP1/NRF2 (Rattus norvegicus); experiment: Inhibition of Keap1-Nrf2 protein-protein interaction in rat H9c2 cells assessed as upregulation of GCLM expression incubated for 12 hrs by Western blot analysis; assay type: cell-based; conditions: dose microM 0.1-10, time 12.0 hrs
[11] = target: T1, KEAP1/NRF2 (Rattus norvegicus); experiment: Inhibition of Keap1-Nrf2 protein-protein interaction in rat H9c2 cells assessed as upregulation of HO1 mRNA expression incubated for 12 hrs by Trizol reagent based qRT-PCR analysis; assay type: cell-based; conditions: dose microM 0.1-10, time 12.0 hrs
[12] = target: T1, KEAP1/NRF2 (Rattus norvegicus); experiment: Inhibition of Keap1-Nrf2 protein-protein interaction in rat H9c2 cells assessed as upregulation of GCLM expression at 10 uM incubated up to 24 hrs by Western blot; assay type: cell-based; conditions: time hrs <=24
H9c2 [13] = experiment: Antiinflammatory activity against LPS-induced sepsis in rat H9c2 cells assessed as decrease in secretion of IL-6 at 1 to 10 uM pretreated for 12 hrs followed by LPS addition measured after 12 hrs by sandwich ELISA; assay type: functional, cell-based; conditions: dose microM 1-10, time 24.0 hrs
CYP2C9 = CYP2C9 (Homo sapiens, UniProt P11712); experiment: Inhibition of CYP2C9 (unknown origin) at 10 uM using […] as substrate preincubated for 5 mins followed by NADPH addition and measured after 20 mins by LC-MS/MS analysis relative to control; assay type: ADME
Chain of CYP2C9 (P11712 whole entry): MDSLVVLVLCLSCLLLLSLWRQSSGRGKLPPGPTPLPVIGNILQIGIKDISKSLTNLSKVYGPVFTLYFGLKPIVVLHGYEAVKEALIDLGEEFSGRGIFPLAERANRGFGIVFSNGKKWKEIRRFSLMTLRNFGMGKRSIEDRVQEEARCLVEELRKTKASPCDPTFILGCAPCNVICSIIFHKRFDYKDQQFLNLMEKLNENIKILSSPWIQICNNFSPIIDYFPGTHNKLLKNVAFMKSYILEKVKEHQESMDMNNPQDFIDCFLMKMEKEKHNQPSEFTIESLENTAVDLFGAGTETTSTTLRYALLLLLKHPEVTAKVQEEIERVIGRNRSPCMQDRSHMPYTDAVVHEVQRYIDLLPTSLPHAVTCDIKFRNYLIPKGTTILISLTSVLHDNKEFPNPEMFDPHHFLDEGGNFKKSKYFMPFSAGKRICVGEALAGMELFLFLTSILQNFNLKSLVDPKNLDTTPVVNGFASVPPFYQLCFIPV

[14] = target: T1, KEAP1/NRF2 (Rattus norvegicus); experiment: Inhibition of Keap1-Nrf2 protein-protein interaction in rat H9c2 cells assessed as upregulation of HO1 expression at 10 uM incubated up to 24 hrs by Western blot; assay type: cell-based; conditions: time hrs <=24
H9c2 [15] = experiment: Antioxidant activity against LPS-induced injury in rat H9c2 cells assessed as increase in GSH/GSSG ratio at 0.1 to 10 uM pretreated for 12 hrs followed by LPS addition measured after 12 hrs; assay type: functional, cell-based; conditions: dose microM 0.1-10, time 24.0 hrs
[16] = Apparent clearance in rat at 5 mg/kg, iv by LC-MS/MS analysis; assay type: ADME, organism-based; conditions: in vivo
Mus musculus [17] = experiment: Cardioprotective activity in LPS-stimulated sepsis in C57BL/6 mouse assessed as reduction in heart tissue inflammation at 10 mg/kg, ip qd administered for 3 days prior to LPS stimulation and measured after 12 hrs by hematoxylin and eosin staining based microscopy; assay type: functional, organism-based; conditions: time 3.5 day
H9c2 [18] = experiment: Cytotoxicity against rat H9c2 cells assessed as reduction in cell viability up to 100 uM incubated for 24 hrs by MTT assay; assay type: cell-based; conditions: h9c2, 24 h
[19] = Permeability of the compound at pH 7.4 incubated for 4 hrs by PAMPA; assay type: ADME; conditions: read-out: permeability
H9c2 [20] = experiment: Upregulation of Nrf2 protein levels in rat H9c2 cells at 10 uM incubated up to 24 hrs by Western blot; assay type: functional, cell-based; conditions: time hrs <=24
[21] = Metabolic stability in human liver microsome assessed as half-life at 1 uM preincubated for 5 mins followed by NADPH addition and measured after 45 mins by LC-MS/MS analysis; assay type: ADME; conditions: liver microsomes
[22] = target: T1, KEAP1/NRF2 (Rattus norvegicus); experiment: Inhibition of Keap1-Nrf2 protein-protein interaction in rat H9c2 cells assessed as upregulation of NQO1 expression incubated for 12 hrs by Western blot analysis; assay type: cell-based; conditions: dose microM 0.1-10, time 12.0 hrs
Mus musculus [23] = experiment: Upregulation of Nrf2 protein levels in LPS-stimulated C57BL/6 mouse model at 10 to 40 mg/kg, ip qd administered for 3 days prior to LPS stimulation and measured after 12 hrs by Western blot analysis; assay type: functional, organism-based; conditions: dose mg/kg 10-40, time 3.5 day

## COc1ccc(S(=O)(=O)NC(=O)CN(c2cccc3c2CCN3C(C(=O)NS(=O)(=O)c2ccc(C)cc2OC)c2cccc(OC)c2)S(=O)(=O)c2ccc(OC)cc2)cc1 (configuration not stated)
[1]
  inhibition: Dose-dependent effect
CYP1A2
  inhibition at 20 min, 10 µM: 8.75%
[2]
  MRT inf: 1.1 h
[3]
  Cmax: 78.2 µg/mL
[4]
  inhibition: Active
Mus musculus [5]
  Activity: Active
CYP2C19
  inhibition at 20 min, 10 µM: 19.8%
CYP3A4
  inhibition at 20 min, 10 µM: 46.9%
[6]
  CLH: 11.4 mL/min/kg
[7]
  inhibition: Dose-dependent effect
[8]
  AUC(0-inf): 47000 ng·h/mL
[9]
  inhibition: Dose-dependent effect
[10]
  inhibition: Dose-dependent effect
[11]
  inhibition: Dose-dependent effect
[12]
  inhibition: Active
H9c2 [13]
  Activity: Active
CYP2C9
  inhibition at 20 min, 10 µM: 30.3%
[14]
  inhibition: Active
H9c2 [15]
  Activity: Active
[16]
  clearance: 1.83 mL/min/kg
Mus musculus [17]
  Activity: Active
H9c2 [18]
  Activity: Non-Toxic
[19]
  Papp at 4 h: 5.27 ×10⁻⁶ cm/s
H9c2 [20]
  Activity: Active
[21]
  half-life at 1 µM: 2.52 h
[22]
  inhibition: Dose-dependent effect
Mus musculus [23]
  Activity: Active

Source: ChEMBL document CHEMBL4665802, “Design, Synthesis, and Structure-Activity Relationships of Indoline-Based Kelch-like ECH-Associated Protein 1-Nuclear Factor (Erythroid-Derived 2)-Like 2 (Keap1-Nrf2) Protein-Protein Interaction Inhibitors” (J Med Chem, 2020)
